{"source": "patent US8541235B2", "about": "“Modified reconstituted basement membrane composition for assay system” (Corning Incorporated, priority 2003, dated 2013)", "key": {"HUVEC tube formation [1]": {"tested_on": "HUVEC tube formation", "test": "Endothelial cell tube formation assay, stimulator studies on modified matrix", "format": "cell-based, human", "settings": "modified matrix (inventive), total tube length, n=4", "procedure": "(§1) With reference to FIG. 1, angiogenesis stimulators can be evaluated for their ability to enhance HUVEC tube formation using the compositions and cell culturing systems of the present invention. […] The bottom surface of the wells are shown as coated with the modified matrix composition of the present invention. On day 1, a potential angiogenesis stimulator is added to the coated surface, along with endothelial cells in cell medium. […] In inhibitor studies, the potential inhibitor is included in a well, in addition to at least one known stimulator and the endothelial cells in cell medium. After an appropriate incubation period, typically 24 hours at 37° C./5% CO2 (day 2), images of the wells are acquired, and tube length is quantified as a measure of cell tube formation.\nKnown stimulators were chosen to evaluate the performance of an inventive basement membrane composition vs. a prior basement membrane composition. The chosen stimulators were bFGF and spinosine-1-phosphate (S1P). […]\nAt the end of each assay, assay medium was removed and plates were washed once with HBSS. […] Total tube length of each well was measured using a revised (from previous) MetaMorph® Journal. Excel data was imported and analyzed using BD Gentest MPM/ADMET Software Program from BD Biosciences Discovery Labware. […]"}, "HUVEC tube formation [2]": {"tested_on": "HUVEC tube formation", "test": "Endothelial cell tube formation assay, inhibitor studies on modified matrix (tube formation induced by bFGF or S1P)", "format": "cell-based, human", "settings": "for Effect on S1P induced HUVEC tube formation: S1P 1 μM; for IC50: Homo sapiens, HUVEC", "procedure": "as §1\nKnown stimulators were chosen to evaluate the performance of an inventive basement membrane composition vs. a prior basement membrane composition. The chosen stimulators were bFGF and spinosine-1-phosphate (S1P). Coated plates prepared as described above in Example 2 were thawed at about 4° C. for a period of about 4 to 5 hours. The components of the composition were then allowed to polymerize at 37° C., 5% CO2 for approximately 30 minutes immediately before assay setup. For stimulator studies, HUVEC (P3-P5) were harvested at about 70% cell confluence. About 50 μl of cells at 4×10^5/ml in 0.1% FBS/EBM-2 medium supplemented with or without the angiogenesis stimulators were seeded onto 96-well plates containing the pre-solidified (i.e., polymerized) modified reconstituted basement membrane composition (inventive) or a standard Matrigel® matrix (BD Growth Factor Reduced Matrigel® Matrix). The assembled assays were allowed to incubate in a 37° C. incubator with 5% CO2 for approximately 16 to 18 hours. Compounds were dissolved in DMF or water according to manufacturer's instructions.\nAt the end of each assay, assay medium was removed and plates were washed once with HBSS. 50 μl Calcein AM at 8 μg/ml in HBSS was added to each well and plates were incubated in a 37° C./5% CO2 incubator for 35 minutes followed by washing once in HBSS. Images were acquired with a 2× objective lens on an automated Gen-1 Cell-based Screening System (Universal Imaging Corporation™). Total tube length of each well was measured using a revised (from previous) MetaMorph® Journal. Excel data was imported and analyzed using BD Gentest MPM/ADMET Software Program from BD Biosciences Discovery Labware.\nInhibitor studies were performed as generally described in Example 4, except that for these studies, an inhibitor was included in the assay, in addition to a known stimulator. Data was obtained on the modified matrix (inventive). […] Stimulators, bFGF or S1P, were added to HUVECs at 20 ng/ml and 1 μM, respectively. Suramin of indicated concentrations was added to HUVEC in bFGF or S1P prior to adding the mixtures to each well. Each data point represents the mean+/−standard deviation (n=4).\nWith reference now to FIG. 5, the effects of inhibitors (SU5402 and Suramin) on HUVEC tube formation induced by stimulators (bFGF and S1P) is shown. Data was obtained on the modified matrix (inventive). Stimulators, bFGF or S1P, were added to HUVECs in EBM-2 containing 0.1% FBS at a final concentration of 20 ng/ml and 1 μM, respectively. Suramin at 15 μM (in medium) or SU5402 at 25 μM (in 0.1% DMF) were added to HUVECs in 0.1% FBS, or bFGF, or S1P, prior to adding the mixtures to the wells. […] Each bar represents the mean+/−standard deviation (n=4)."}}, "note": "Like-named read-outs stand apart in the source and are kept apart here."}
{"compound": "CCCCCCCCCCCCC/C=C/[C@@H](O)[C@@H](N)COP(=O)(O)O", "note": "[S1P, sphinosine-1-phosphate]", "values": [{"measurement": "EC50", "setting": "HUVEC tube formation [1]; read-out: EC50 in inducing HUVEC tube formation", "result": 0.319, "unit": "µM"}]}
{"compound": "Cc1c[nH]c(/C=C2\\C(=O)Nc3ccccc32)c1CCC(=O)O", "note": "[SU5402]", "values": [{"measurement": "Effect on S1P induced HUVEC tube formation", "setting": "HUVEC tube formation [2]; SU5402 at 25 μM (in 0.1% DMF), modified matrix, FIG. 5", "result": "partially inhibited"}, {"measurement": "Effect on HUVEC tube formation stimulated by bFGF", "setting": "HUVEC tube formation [2]; SU5402 at 25 μM (in 0.1% DMF), bFGF 20 ng/ml, modified matrix, FIG. 5", "result": "completely inhibited"}]}
{"compound": "Cc1ccc(C(=O)Nc2ccc(S(=O)(=O)O)c3cc(S(=O)(=O)O)cc(S(=O)(=O)O)c23)cc1NC(=O)c1cccc(NC(=O)Nc2cccc(C(=O)Nc3cc(C(=O)Nc4ccc(S(=O)(=O)O)c5cc(S(=O)(=O)O)cc(S(=O)(=O)O)c45)ccc3C)c2)c1", "note": "[Suramin]", "values": [{"measurement": "IC50", "setting": "HUVEC tube formation [2]; read-out: IC50 of inhibition of tube formation stimulated by S1P", "result": 10.6, "unit": "µM"}, {"measurement": "IC50", "setting": "HUVEC tube formation [2]; read-out: IC50 of inhibition of tube formation stimulated by bFGF", "result": 7.3, "unit": "µM"}, {"measurement": "Effect on S1P induced HUVEC tube formation", "setting": "HUVEC tube formation [2]; Suramin at 15 μM (in medium), modified matrix, FIG. 5", "result": "inhibited"}, {"measurement": "Effect on bFGF induced HUVEC tube formation", "setting": "HUVEC tube formation [2]; Suramin at 15 μM (in medium), bFGF 20 ng/ml, modified matrix, FIG. 5", "result": "inhibited"}]}
{"compound": "bFGF: known angiogenesis stimulator; fibroblast growth factor (basic FGF)", "values": [{"measurement": "EC50 in inducing HUVEC tube formation", "setting": "HUVEC tube formation [1]", "result": 1.5, "unit": "ng/mL"}]}
